Calls of active or inactive are those of the source.
What was measured:
[1] = molecular target: T1, Calpain-2 catalytic subunit (Sus scrofa, UniProt P43367); experiment: pig calpain II inhibitor potency, dose response, biochemical, fluorogenic peptide substrate (AID 1420); type: functional
T1 sequence (P43367 whole entry): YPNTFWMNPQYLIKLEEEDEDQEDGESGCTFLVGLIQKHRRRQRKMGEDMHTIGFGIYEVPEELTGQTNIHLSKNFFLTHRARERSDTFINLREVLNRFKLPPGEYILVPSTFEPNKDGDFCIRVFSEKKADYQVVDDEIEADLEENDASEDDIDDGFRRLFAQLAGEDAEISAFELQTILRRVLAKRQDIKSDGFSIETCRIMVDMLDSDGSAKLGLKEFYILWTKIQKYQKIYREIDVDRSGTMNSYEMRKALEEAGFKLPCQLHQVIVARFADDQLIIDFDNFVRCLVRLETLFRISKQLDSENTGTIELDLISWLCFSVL

X-box-binding protein 1 = X-box-binding protein 1 (Homo sapiens, UniProt P17861); type: functional, Cricetulus griseus;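 further: confirmatory dose-response counter-screen serving a CHOP assay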
Insulin-degrading enzyme [2] = molecular target: T2, Insulin-degrading enzyme (Homo sapiens, UniProt P14735); experiment: activators of recombinant IDE enzyme, dose response, counter-screen for IDE activator project, biochemical, fluorescence polarization (AID 588681)
T2 sequence (P14735 whole entry): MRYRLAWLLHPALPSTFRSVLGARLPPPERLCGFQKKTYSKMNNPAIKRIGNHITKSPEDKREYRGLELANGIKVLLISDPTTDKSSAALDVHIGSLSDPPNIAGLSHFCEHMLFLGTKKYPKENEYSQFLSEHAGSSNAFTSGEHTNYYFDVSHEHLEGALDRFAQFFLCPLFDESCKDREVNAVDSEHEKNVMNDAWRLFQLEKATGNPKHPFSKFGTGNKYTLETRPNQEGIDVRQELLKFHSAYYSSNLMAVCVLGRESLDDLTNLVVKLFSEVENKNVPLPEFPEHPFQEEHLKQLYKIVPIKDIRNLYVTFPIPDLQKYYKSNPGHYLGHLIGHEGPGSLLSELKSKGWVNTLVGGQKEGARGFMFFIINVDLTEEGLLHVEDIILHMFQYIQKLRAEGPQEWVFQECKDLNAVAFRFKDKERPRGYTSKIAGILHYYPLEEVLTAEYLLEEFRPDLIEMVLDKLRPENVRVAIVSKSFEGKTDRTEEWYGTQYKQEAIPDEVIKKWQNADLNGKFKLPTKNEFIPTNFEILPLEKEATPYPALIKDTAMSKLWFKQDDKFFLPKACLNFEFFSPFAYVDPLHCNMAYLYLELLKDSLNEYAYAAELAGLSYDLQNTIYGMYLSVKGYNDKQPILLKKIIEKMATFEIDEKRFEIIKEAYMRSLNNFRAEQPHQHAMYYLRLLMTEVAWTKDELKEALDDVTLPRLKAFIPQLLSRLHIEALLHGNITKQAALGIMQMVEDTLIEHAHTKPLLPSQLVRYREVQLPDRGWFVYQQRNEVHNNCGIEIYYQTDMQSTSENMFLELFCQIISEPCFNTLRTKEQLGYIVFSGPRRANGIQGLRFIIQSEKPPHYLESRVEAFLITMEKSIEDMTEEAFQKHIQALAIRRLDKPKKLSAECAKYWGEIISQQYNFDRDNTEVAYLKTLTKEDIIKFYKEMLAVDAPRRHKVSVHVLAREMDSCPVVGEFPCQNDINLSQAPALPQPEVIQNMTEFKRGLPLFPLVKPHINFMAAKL

Insulin-degrading enzyme [3] = molecular target: T2, Insulin-degrading enzyme; experiment: activators of endogenous IDE in HEK cells, dose response, cell-based, fluorescence polarization (AID 588439); type: functional
HEK293 = experiment: optical interference in Abeta FP readout, dose response, artefact control for IDE activator project, biochemical, fluorescence polarization (AID 588442); type: functional, cell-based; details: Homo sapiens
[4] = Shn3 3'UTR reporter inhibitors, dose response, cell-based, Clone20 osteoblasts, firefly luciferase, cherry-picked (AID 624132); type: functional;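 further: firefly luciferase luminescence from reporter carrying the Shn3 3'UTR in osteoblasts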

Chain of X-box-binding protein 1 (P17861 whole entry): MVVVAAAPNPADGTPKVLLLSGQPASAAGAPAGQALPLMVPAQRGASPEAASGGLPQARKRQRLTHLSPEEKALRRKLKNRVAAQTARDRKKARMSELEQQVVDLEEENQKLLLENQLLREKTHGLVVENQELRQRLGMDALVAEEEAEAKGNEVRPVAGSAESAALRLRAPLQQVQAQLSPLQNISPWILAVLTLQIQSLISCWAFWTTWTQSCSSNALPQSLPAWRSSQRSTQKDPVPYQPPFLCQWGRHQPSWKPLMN

In the case of `Cl.N=c1n(Cc2ccccc2)c2ccccc2n1CC(O)COc1ccc(Cl)cc1Cl` (stereo unspecified), the IC50 [1] is reported as 33.4 µM (not active), the “Absolute IC50 (XBP1)” value (X-box-binding protein 1) is reported as 10 µM and the EC50 (Insulin-degrading enzyme [2]) is reported as 40.1 µM (inactive). For the same compound, the EC50 (Insulin-degrading enzyme [3]) was 11.2 µM (inactive), the EC50 (HEK293) was > 54.7 µM (inactive) and the AC50 [4] was 2.89 µM (active).

From ChEMBL document CHEMBL1201862, “PubChem BioAssay data set” (2004)
